Publication PMC12257540, “From Inhibitors to PET: SAR-Based Development of [^18F]SK60 for mIDH1 Imaging” (Journal of Medicinal Chemistry, 2025)
Several values for one entry are separate records, joined by “and”; a condition that tells them apart may be missing. Equal values may be shown once.

Key:
IDH1R132H = target: T1, IDH1R132H (Homo sapiens, UniProt O75874, R132H); test: Mutant IDH1 enzyme assay for determination of inhibitory potency (diaphorase/resazurin); assay type: biochemical; conditions: recombinant IDH1R132H, 30 min preincubation, 60 min reaction
T1 construct: purchased BPS Bioscience BPS-79376
T1 sequence (O75874 whole entry R132H): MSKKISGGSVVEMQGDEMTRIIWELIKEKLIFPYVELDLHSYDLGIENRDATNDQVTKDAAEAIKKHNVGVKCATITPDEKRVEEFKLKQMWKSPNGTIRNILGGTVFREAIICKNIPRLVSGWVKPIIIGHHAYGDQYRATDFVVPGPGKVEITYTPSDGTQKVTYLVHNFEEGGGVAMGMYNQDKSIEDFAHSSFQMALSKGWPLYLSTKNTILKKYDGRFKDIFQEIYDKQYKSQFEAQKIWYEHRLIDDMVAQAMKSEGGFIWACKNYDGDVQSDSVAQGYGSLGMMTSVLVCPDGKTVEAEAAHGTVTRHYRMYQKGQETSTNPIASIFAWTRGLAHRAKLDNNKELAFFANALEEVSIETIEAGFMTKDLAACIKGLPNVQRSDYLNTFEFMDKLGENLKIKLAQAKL
Method: Determination of the activity and inhibition of mutant IDH1 recombinant protein, IDH1R132H, is based on the reduction of α-KG acid to D-2-HG accompanied by a concomitant oxidation of NADPH to NADP. The amount of NADPH remaining at the end of the reaction time is measured in a secondary diaphorase/resazurin reaction, in which the NADPH is consumed in a 1/1 molar ratio with the conversion of resazurin to the highly fluorescent resorufin. For the determination of the inhibitory potential of ligands, the IDH1R132H Assay Kit (BPS-79376, BPS Bioscience, San Diego, CA) was used. […] For inhibition assays, triplicate samples of the ligands in the concentration range from 10^–5 M to 10^–10 M were incubated with the enzyme for 30 min before the addition of α-KG and NADPH to initiate the reaction. The reaction ran for 60 min at room temperature and was terminated with the addition of 25 μL of detection buffer (36 μg/mL diaphorase and […] resazurin) to 50 μL of the reaction solution. The conversion of resazurin to resorufin by diaphorase was measured fluorometrically at Ex544/Em590 (Synergy H1 microplate reader, BioTek, Winooski, VT). The data were imported into GraphPad Prism 4.1 (GraphPad Inc.; La Jolla; CA), and the IC50 values were calculated with a standard dose–response curve fitting (Figure S2, SI).

wtIDH1 = target: T2, wtIDH1 (Homo sapiens, UniProt O75874); test: IDH1 enzyme assay for determination of inhibitory potency (diaphorase/resazurin); assay type: biochemical; conditions: 1 h preincubation, 1 h reaction
T2 construct: purchased abcam ab113858
T2 sequence (O75874 whole entry): as the sequence (O75874 whole entry R132H) above, with H132R counted along it
Method: IDH1 enzyme assay is a modified version of the assay used for mIDH1. With the conversion of isocitrate to α-KG, this enzyme stoichiometrically converts NADP to NADPH. It produces NADPH, which directly couples to the diaphorase/resazurin system, and the resorufin production can be measured. The protocols for the determination of inhibition of IDH1 were performed as described by Wang et al. (2013). The IDH1 (ab113858) was purchased from abcam (Cambridge, UK).
Briefly, IDH1 assays were conducted in 50 μL buffer (20 mM TRIS buffer (pH = 7.5), 150 mM NaCl, 10 mM MgCl2, 0.05% BSA and 4 mM β-mercaptoethanol) containing 50 μM NADP, 70 μM DL-isocitrate, and 0.04 μg/mL IDH1 enzyme (reaction time 1 h at room temperature). For inhibition assays, triplicate samples of the ligands in the concentration range from 10^–4 M to 10^–10 M were incubated with the IDH1 for 1 h before the addition of DL-isocitrate and NADP to initiate the reaction together with the direct detection system comprised of 20 μg/mL diaphorase and 4 μM resazurin. The reaction was terminated with the addition of 25 μL of 2% SDS and read on a Synergy H1 microplate reader at Ex544/Em590. The data were imported into GraphPad Prism, and the IC50 values were calculated with a standard dose–response curve fitting (Figure S2, SI).

Compound | IC50 (IDH1R132H) | IC50 (wtIDH1) [µM]
CC1(C)CN(C(=O)c2ccc[nH]2)Cc2c(C(=O)Nc3ccccc3)nn(Cc3ccc(F)cc3)c21 [Compound 23, 1-(4-fluorobenzyl)-7,7-dimethyl-N-phenyl-5-(1H-pyrrole-2-carbonyl)-4,5,6,7-tetrahydro-1H-pyrazolo[4,3-c]pyridine-3-carboxamide] | 0.0247 µM and 0.064 µM | > 10
CC1(C)CN(C(=O)c2ccc[nH]2)Cc2c(C(=O)Nc3ccccc3F)nn(Cc3ccc(F)cc3)c21 [Compound 27, 1-(4-fluorobenzyl)-N-(2-fluorophenyl)-7,7-dimethyl-5-(1H-pyrrole-2-carbonyl)-4,5,6,7-tetrahydro-1H-pyrazolo[4,3-c]pyridine-3-carboxamide] | 0.196 µM | 
CC1(C)CN(C(=O)c2ccc[nH]2)Cc2c(C(=O)Nc3cccnc3)nn(Cc3ccc(F)cc3)c21 [Compound 30, 1-(4-fluorobenzyl)-7,7-dimethyl-N-(pyridin-3-yl)-5-(1H-pyrrole-2-carbonyl)-4,5,6,7-tetrahydro-1H-pyrazolo[4,3-c]pyridine-3-carboxamide] | 0.631 µM and 0.648 µM | > 10
CC1(C)CN(C(=O)c2ccc[nH]2)Cc2c(C(=O)NC34CC5CC(CC(C5)C3)C4)nn(Cc3ccc(F)cc3)c21 [Compound 33] | 0.163 ± 0.0396 µM | > 10
CC1(C)CN(C(=O)c2ccc[nH]2)Cc2c(C(=O)N3CCCCC3)nn(Cc3ccc(F)cc3)c21 [Compound 35] | > 1 µM | > 10
CC1(C)CN(C(=O)c2ccc[nH]2)Cc2c(C(=O)NC3CCCC3)nn(Cc3ccc(F)cc3)c21 [Compound 36] | 5.9 µM | > 10
Cc1cccc(NC(=O)c2nn(CCCCF)c3c2CN(C(=O)c2ccc[nH]2)CC3(C)C)c1 [Compound 47, 1-(4-fluorobutyl)-7,7-dimethyl-5-(1H-pyrrole-2-carbonyl)-N-(m-tolyl)-4,5,6,7-tetrahydro-1H-pyrazolo[4,3-c]pyridine-3-carboxamide] | 0.571 µM | > 10

The next lines start with the values.

IC50 (IDH1R132H) | IC50 (wtIDH1) [µM] | Compound
> 10 µM | > 10 | CC1(C)CN(C(=O)c2ccc[nH]2)Cc2c(C(=O)N3CCOCC3)nn(Cc3ccc(F)cc3)c21 [Compound 37]
> 5 µM | > 10 | CCCOCCNC(=O)c1nn(Cc2ccc(F)cc2)c2c1CN(C(=O)c1ccc[nH]1)CC2(C)C [Compound 39]
> 10 µM | > 10 | CN(C)C(=O)c1nn(Cc2ccc(F)cc2)c2c1CN(C(=O)c1ccc[nH]1)CC2(C)C [Compound 41]
5.02 µM | > 10 | CC1(C)CN(C(=O)c2ccc[nH]2)Cc2c(C(N)=O)nn(Cc3ccc(F)cc3)c21 [Compound 42]
1.3 µM |  | Cc1cccc(NC(=O)c2nn(Cc3ccc(F)cc3)c3c2CN(C(=O)C(C)(C)CF)CC3(C)C)c1 [Compound 60, 5-(3-fluoro-2,2-dimethylpropanoyl)-1-(4-fluorobenzyl)-7,7-dimethyl-N-(m-tolyl)-4,5,6,7-tetrahydro-1H-pyrazolo[4,3-c]pyridine-3-carboxamide]
